Several values for one entry are separate records, joined by “and”; a condition that tells them apart may be missing. Equal entries are not always repeated. Where two headings read alike, the source gives them in different places.
Key:
[1] = system: corpus callosum; experiment: Cuprizone remyelination in double transgenic mice on PERK+/+ or PERK+/− background; type: in vivo; conditions: for remyelinated axons: 9 weeks
Excerpt: The involvement of the ER stress response in the reduction caused by IFN-γ to remyelinate lesions was examined in transgenic mice that were generated to be heterozygous for a loss of function mutation in pancreatic ER kinase (PERK) (Harding, et al., (2001) Mol Cell 7:1153-1163), and to be temporally regulated for expressing INF-γ in the CNS. TRE/IFN-γ mice were first crossed with PERK+/− mice (Harding, et al. (2001) Mol. Cell 7: 1153-1163) on the C57BL/6 background to generate mice the carry the PERK mutation, and the resulting progeny were crossed to GFAP/tTA mice to obtain transgenic mice that were heterozygous for the PERK mutation. The effect of PERK on remyelination in the presence or absence of INF-γ was evaluated as evaluated as a function of the level of meylination of oligodendrocytes in remyelinating lesions and the number of oligodendrocytes present in the remyelinating lesion.
The extent of remyelination was assessed as described in the previous examples in the corpus callosum of PERK+/+ and PERK+/− mice that were made to express INF-γ (DOX−PERK+/+ and DOX−PERK+/−), and in mice in which the expression of INF-γ was repressed (DOX+PERK+/+ and DOX+PERK+/−). Remyelination was determined by electron microscopy, and was related to the number of CC1 positive oligodendrocytes and the level of caspase-3 expression in the corpus callosum of all animals. The level of caspase-3 was determined by immunohistochemical methods using anti capsase antibody (active-casoase-3 antibody, 1:50; Cel Signaling Technology) and according to the method described in Example 1. Demyelination was induced in six-week-old GFAP/tTA; TRE/IFN-γ double transgenic mice on a PERK+/− background that had been maintained on doxycycline, by simultaneously treating the mice with 0.2% cuprizone and releasing them from doxycycline (DOX−PERK+/−). Remyelination was allowed to occur by withdrawing cuprizone at week 6.

[2] = system: EAE demyelinating lesions; experiment: EAE, CNS delivery of INF-γ at the recovery stage (doxycycline withdrawn at PID7); type: in vivo, mice
Excerpt: Double transgenic mice that allow for temporally regulated delivery of INF-γ to the CNS (Lin et al., J Neurosci 24:10074-10083 (2004)) were used to assess the role of INF-γ in the pathogenesis of EAE. GFAP/tTA; TRE/IFN-γ double transgenic mice, as described in Example 1 were used to determine the effect of INF-γ on the demyelination caused by EAE. All mice were fed doxycycline from the day of conception to repress the expression of INF-γ, and were immunized with myelin oligodendrocyte protein (MOG35-55) to induce EAE. AT day 7 postimmunization (PID7), doxycycline was withdrawn from the experimental group (PID7 DOX−).
The level of INF-γ was determined in the control (DOX+) and the PID7 DOX− mice using an ELISA immunoassay as described in Example 1, and the severity of the disease was assessed as a function of a clinical score. Clinical severity scores were recorded daily according to a 0-5 point scale, where 0=healthy, 1=flaccid tail, 2=ataxia and/or paresis of hind limbs, 3=paralysis of hind limbs and/or paresis of forelimbs, 4=tetraparalysis, and 5=moribund or dead.
The spinal cord from DOX+ and DOX− animals with EAE was immunostained for MBP, and the remyelination of axons was evaluated. The number of oligodendrocytes was determined in the spine from DOX+ and DOX− mice as the number of CC1 positive cells. Axonal damage was evaluted by immunostaining of non-phosphorylated neurofilament-H. Antibodies to non-phosphorylated neurofilament-H were SM132 diluted to 1:1000 and obtained from Sternberger Monoclonals.
INF-γ is known to induce MHC antigens and activate macrophages and T lymphocytes. The inflammatory effect of INF-γ was studied in the CNS during remyelination by determining the infiltration of T cells and macrophages, and measuring the expression of MHC-1, TNF-a, IL-2, IL-12 and IL-17. Immunohistochemistry was performed in tissues from the DOX+ and DOX− mice with EAE as described in Example 4. Experimental procedures were followed as described in the examples above.

[3] = system: EAE-induced demyelination; conditions: for Mean of maximum clinical score (mean ± S.D.): 0–5 point scale; for Day of onset of disease (PID: postimmunization day): n = 25; for CD3 T cell infiltration in the lumbar spinal cord / EAE-induced demyelination: myelin, axons and oligodendrocytes in the lumbar spinal cord: PID 17
[4] = system: oligodendrocytes in adult mice; experiment: IFN-γ expression in the CNS of adult mice (released from doxycycline at 4 weeks of age); type: in vivo
Excerpt: Compared with the actively myelinating oligodendrocytes of young growing animals, oligodendrocytes in adult mice produce lower levels of membrane proteins and lipids, just enough to maintain homeostasis in the myelin structure (Morell, et al. (1999) Basic Neurochemistry: Molecular, Cellular, and Medical Aspects (Philadelphia, Pa.: Lippincott-Raven Publishers): 69-93). The ER of oligodendrocytes in adult animals may thus have more spare capacity to process increased protein load and as such may be less sensitive to disruptions of the protein secretory pathway. To examine this possibility, double transgenic mice were allowed to develop to maturity, at which time IFN-γ expression in the CNS was initiated.

[5] = DOX− vs DOX+, spinal cord PID50
[6] = PERK+/+ background, listed as INF-γ
[7] = PERK+/+ background, peak of disease

With “IFN-γ: pleotropic cytokine secreted by activated T lymphocytes and natural killer cells; delivered to the CNS by transgene or added as recombinant protein” the remyelinated axons ([1]; DOX−PERK+/+) was 31.1%±7.6%, the CC1 positive oligodendrocytes ([1]; DOX−PERK+/+, week 9) was 123.2±27.5 /0.04 mm^2 and the remyelinated axons ([1]; DOX−PERK+/−) was 15.6%±7.6%. The “caspase-3 positive oligodendrocytes, DOX−PERK+/− relative to DOX−PERK+/+” value ([1]; week 9) was 2.3 times, the “number of CC1 positive oligodendrocytes” value ([2]; DOX− animals, PID50) was “significantly decreased” and the “mice that developed hind limb paralysis” value ([2]; DOX− mice, PID17) was 24 of 30. The “mean maximum clinical score” value ([2]; DOX− mice, PID17, 0-5 scale) was 2.69±0.69, the clinical score ([2]; DOX− mice, PID50) was roughly 2 and the “mice continuing to suffer from hind limb paralysis” value ([2]; DOX− mice, PID50) was 12/24. For the same substance, the “axonal damage (non-phosphorylated neurofilament-H immunostaining)” value ([2]; DOX− vs DOX+) was “not affected”, the “level of MBP in the lumbar spinal cord (immunostaining)” value ([2]; DOX− vs DOX+ mice) was “notably reduced” and the “expression of IL-17 (real time PCR)” value [2, 5] was “decrease”. The “expression of MHC-1, TNF-a, LL2 and IL-12 (real time PCR)” value [2, 5] was “increased”, the “expression of iNOs and IL-23 (real time PCR)” value [2, 5] was “did not alter” and the “number of infiltrating T cells and macrophages in the lumbar spinal cord (CD3, CD11b)” value ([2]; mouse, in vivo) was “did not increase significantly”. The Incidence of death ([3]; DOX− double mice) was 0/25, the “Mean of maximum clinical score (mean ± S.D.)” value ([3]; DOX− double mice) was 1.63 ± 0.51 and the “MBP mRNA in the spinal cord vs age-matched naïve mice” value ([3]; DOX− double mice, PID17) was “not significantly decreased”. For the same substance, the “Day of onset of disease (PID: postimmunization day)” value ([3]; DOX− double mice) was 14.7 ± 1.4, the “Incidence of hind limb paralysis” value ([3]; DOX− double mice, listed as INF-γ) was 2 of 25 and 2/25 and the Incidence of death ([3]; DOX− triple mice (PERK+/−)) was 3/25. The “Incidence of hind limb paralysis” value ([3]; DOX− triple mice (PERK+/−)) was 18/25, the “Mean of maximum clinical score (mean ± S.D.)” value ([3]; DOX− triple mice (PERK+/−)) was 2.71 ± 1.11 and the “Day of onset of disease (PID: postimmunization day)” value ([3]; DOX− triple mice (PERK+/−)) was 13.6 ± 0.8. For the same substance, the “CD3 positive T cell infiltration in the spinal cord” value ([3]; EAE onset) was “did not significantly affect”, the “CD11b positive monocyte infiltration in the spinal cord” value ([3]; EAE onset) was “increased” and the “PERK-eIF2α pathway in oligodendrocytes (p-PERK, p-eIF2α colocalization with CC1)” value ([3]; EAE onset) was “markedly activated”. For the same substance, the “expression of iNOs, TNF-a, IL-2, IL-12 and IL-10 in the spinal cord (real time PCR)” value ([3]; EAE onset, PID14) was “strongly enhanced”, the “expression of iNOs, TNF-a, IL-2, IL-12 and IL-10 in the spinal cord (real time PCR)” value ([3]; EAE onset, PID14, listed as INF-γ) was “increased” and the “CD3 T cell infiltration in the lumbar spinal cord” value ([3]; PERK+/+ background) was “reduced”. The “EAE-induced demyelination: myelin, axons and oligodendrocytes in the lumbar spinal cord” value ([3]; PERK+/+ background) was “protected”, the “CD3 T cell infiltration in the lumbar spinal cord” value [3, 6] was “lower” and the “EAE-induced demyelination: myelin, axons and oligodendrocytes in the lumbar spinal cord” value [3, 6] was “remained almost intact”. For the same substance, the “expression of IL-2 in spinal cord” value [3, 7] was “decreased”, the “expression of IL-12 in spinal cord” value [3, 7] was “decreased” and the “expression of IL-23 in spinal cord” value [3, 7] was “decreased”. The “expression of IL-2 and IL-5 in the spinal cord (real time PCR)” value ([3]; PID14) was “did not affect”, the “amelioration of EAE” value ([3]; mice heterozygous for the PERK mutation) was “did not ameliorate” and the “CD11b positive monocyte infiltration” value ([3]; peak of disease) was “did not change”. For the same substance, the “expression of IL-5 in spinal cord” value ([3]; peak of disease) was “did not significantly affect”, the “expression of IL-10 in spinal cord” value ([3]; peak of disease) was “did not significantly affect” and the “expression of iNOs or TNF-γ” value ([3]; peak of disease) was “did not significantly affect”. The “BIP and CHOP in the cerebellum” value ([4]; 10-week-old double transgenic mice) was “modest induction”, the “myelin in the CNS (ultrastructural examination)” value ([4]; 10-week-old, wild-type or PERK+/− background) was “normal myelin” and the oligodendrocyte survival ([4]; adult mice, also PERK+/− background) was “did not affect”.
